# Tests used:
# Type in all cases: cell-based
# Conditions in all cases: compounds at 50 nM and 500 nM
# WEE1 = molecular target: T1, WEE1 (Homo sapiens, UniProt P30291+Q96SW2); assay: Western blot degradation of WEE1 in hPBMCs (24 h)
# T1 construct: The supernatant was aspirated as the extracted total cell protein; endogenous in cells; host or cells: human peripheral blood mononuclear cells (hPBMCs)
# Description: (§1) Conventional Western blot assay was performed to evaluate the effects of the compounds of the present disclosure on the expression of target proteins in cells. • (1) Cell Seeding and Protein Harvesting: Human peripheral blood mononuclear cells (hPBMCs) at a density of 1×10^6 cells/mL were thawed according to the PBMC Recovery Protocol (Milecell Biotechnologies Inc, Shanghai). The cells were then treated with the compounds of the present disclosure (including the compounds listed in Table 1, and the Examples 1-498 compounds) at concentrations of 50 nM and 500 nM. Controls included a negative control (DMSO) and a positive control (the commercial immunomodulatory drug lenalidomide), both processed following the identical experimental protocol as the compounds of the present disclosure. After 24 hours of compounds treatment, cells were harvested and lysed in RIPA protein lysate containing protease inhibitors on ice for 30 min, followed by centrifugation. The supernatant was aspirated as the extracted total cell protein. The protein concentration of the supernatant was determined using the conventional BCA (Bicinchoninic Acid) assay. • (2) To the collected supernatant, 5×SDS sample loading buffer was added, followed by denaturation at 95 °C for 5 minutes. The denatured samples were then separated by SDS-PAGE electrophoresis on a polyacrylamide gel. Proteins were transferred to a nitrocellulose membrane (0.45 μm NC membrane), blocked with blocking buffer at room temperature for 1 hour, and subjected to antibody incubation and development procedures according to the antibody manufacturer's instructions (Cell Signaling Technology).
# (§2) Half-Maximal Degradation Concentration value (the drug concentration required for degrading proteins by 50%, abbreviated as DC50) reads method: comparing the grayscale values of Western blot bands from drug-treated samples with those from blank DMSO-treated controls, and identifying the drug concentration range at which the grayscale value is half that of the DMSO-treated control bands.
# (§3) DC50 values can be calculated using ImageJ software to measure grayscale values of Western blot bands from drug-treated samples. The concentration-response curve is fitted to estimate the drug concentration corresponding to half the grayscale value.
# (§4) Target protein remaining (%) refers to the percentage of target protein remaining in cells after treatment with protein degrader compounds.
# (§5) Calculation method for target protein remaining (%): Use ImageJ software to measure grayscale values of Western blot bands from drug (protein degrader)-treated samples. The grayscale value of drug-treated bands is divided by that of internal control protein bands, and the resulting quotient is normalized to obtain the relative percentage of remaining target protein after protein degrader treatment.
# (§6) Target protein degradation rate (%)=1−target protein remaining (%).
# IKZF1 = molecular target: T2, IKZF1 (Homo sapiens, UniProt Q13422+Q96SW2); assay: Western blot degradation of IKZF1 in hPBMCs (24 h)
# T2 construct: The supernatant was aspirated as the extracted total cell protein; endogenous in cells; host or cells: human peripheral blood mononuclear cells (hPBMCs)
# Description: as §1, §2, §3, §4, §5, §6
# IKZF2 = molecular target: T3, IKZF2 (Homo sapiens, UniProt Q96SW2+Q9UKS7); assay: Western blot degradation of IKZF2 in hPBMCs (24 h)
# T3 construct: The supernatant was aspirated as the extracted total cell protein; endogenous in cells; host or cells: human peripheral blood mononuclear cells (hPBMCs)
# Description: as §1, §2, §3, §4, §5, §6
# IKZF3 = molecular target: T4, IKZF3 (Homo sapiens, UniProt Q96SW2+Q9UKT9); assay: Western blot degradation of IKZF3 in hPBMCs (24 h)
# T4 construct: The supernatant was aspirated as the extracted total cell protein; endogenous in cells; host or cells: human peripheral blood mononuclear cells (hPBMCs)
# Description: as §1, §2, §3, §4, §5, §6
# CK1α = molecular target: T5, CK1α (Homo sapiens, UniProt P48729+Q96SW2); assay: Western blot degradation of CK1α in hPBMCs (24 h)
# T5 construct: The supernatant was aspirated as the extracted total cell protein; endogenous in cells; host or cells: human peripheral blood mononuclear cells (hPBMCs)
# Description: as §1, §2, §3, §4, §5, §6
# GSPT1 = molecular target: T6, GSPT1 (Homo sapiens, UniProt P15170+Q96SW2); assay: Western blot degradation of GSPT1 in hPBMCs (24 h)
# T6 construct: The supernatant was aspirated as the extracted total cell protein; endogenous in cells; host or cells: human peripheral blood mononuclear cells (hPBMCs)
# Description: as §1, §2, §3, §4, §5, §6
# T6 sequence (P15170 whole entry): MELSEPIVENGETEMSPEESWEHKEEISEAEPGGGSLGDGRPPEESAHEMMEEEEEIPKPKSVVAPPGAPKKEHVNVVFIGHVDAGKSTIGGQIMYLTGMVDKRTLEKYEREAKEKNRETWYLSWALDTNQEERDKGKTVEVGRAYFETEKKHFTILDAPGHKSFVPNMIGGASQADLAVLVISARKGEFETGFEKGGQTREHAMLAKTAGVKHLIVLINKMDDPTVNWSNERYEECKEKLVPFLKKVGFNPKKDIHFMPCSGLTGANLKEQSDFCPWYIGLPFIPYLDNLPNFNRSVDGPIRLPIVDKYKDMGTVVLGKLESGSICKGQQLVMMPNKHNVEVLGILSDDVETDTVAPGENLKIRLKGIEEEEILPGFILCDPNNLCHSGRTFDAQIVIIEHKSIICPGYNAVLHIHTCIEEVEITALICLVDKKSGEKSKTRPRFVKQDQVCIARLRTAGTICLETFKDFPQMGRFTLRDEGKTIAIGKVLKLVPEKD
# T6 sequence (Q96SW2 whole entry): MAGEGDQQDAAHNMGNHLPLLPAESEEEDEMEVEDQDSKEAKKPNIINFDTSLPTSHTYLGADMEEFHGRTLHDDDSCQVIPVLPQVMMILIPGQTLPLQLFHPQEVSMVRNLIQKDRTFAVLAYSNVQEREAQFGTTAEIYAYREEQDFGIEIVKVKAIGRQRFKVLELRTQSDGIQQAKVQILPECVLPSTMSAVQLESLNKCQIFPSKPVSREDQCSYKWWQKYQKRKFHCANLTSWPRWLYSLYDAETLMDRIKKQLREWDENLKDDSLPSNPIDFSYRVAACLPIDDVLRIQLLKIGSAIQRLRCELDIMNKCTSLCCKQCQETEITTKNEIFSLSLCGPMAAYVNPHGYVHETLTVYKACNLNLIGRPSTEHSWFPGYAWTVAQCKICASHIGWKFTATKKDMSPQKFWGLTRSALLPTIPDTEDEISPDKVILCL
# T6 sequence (Q16531 whole entry partner): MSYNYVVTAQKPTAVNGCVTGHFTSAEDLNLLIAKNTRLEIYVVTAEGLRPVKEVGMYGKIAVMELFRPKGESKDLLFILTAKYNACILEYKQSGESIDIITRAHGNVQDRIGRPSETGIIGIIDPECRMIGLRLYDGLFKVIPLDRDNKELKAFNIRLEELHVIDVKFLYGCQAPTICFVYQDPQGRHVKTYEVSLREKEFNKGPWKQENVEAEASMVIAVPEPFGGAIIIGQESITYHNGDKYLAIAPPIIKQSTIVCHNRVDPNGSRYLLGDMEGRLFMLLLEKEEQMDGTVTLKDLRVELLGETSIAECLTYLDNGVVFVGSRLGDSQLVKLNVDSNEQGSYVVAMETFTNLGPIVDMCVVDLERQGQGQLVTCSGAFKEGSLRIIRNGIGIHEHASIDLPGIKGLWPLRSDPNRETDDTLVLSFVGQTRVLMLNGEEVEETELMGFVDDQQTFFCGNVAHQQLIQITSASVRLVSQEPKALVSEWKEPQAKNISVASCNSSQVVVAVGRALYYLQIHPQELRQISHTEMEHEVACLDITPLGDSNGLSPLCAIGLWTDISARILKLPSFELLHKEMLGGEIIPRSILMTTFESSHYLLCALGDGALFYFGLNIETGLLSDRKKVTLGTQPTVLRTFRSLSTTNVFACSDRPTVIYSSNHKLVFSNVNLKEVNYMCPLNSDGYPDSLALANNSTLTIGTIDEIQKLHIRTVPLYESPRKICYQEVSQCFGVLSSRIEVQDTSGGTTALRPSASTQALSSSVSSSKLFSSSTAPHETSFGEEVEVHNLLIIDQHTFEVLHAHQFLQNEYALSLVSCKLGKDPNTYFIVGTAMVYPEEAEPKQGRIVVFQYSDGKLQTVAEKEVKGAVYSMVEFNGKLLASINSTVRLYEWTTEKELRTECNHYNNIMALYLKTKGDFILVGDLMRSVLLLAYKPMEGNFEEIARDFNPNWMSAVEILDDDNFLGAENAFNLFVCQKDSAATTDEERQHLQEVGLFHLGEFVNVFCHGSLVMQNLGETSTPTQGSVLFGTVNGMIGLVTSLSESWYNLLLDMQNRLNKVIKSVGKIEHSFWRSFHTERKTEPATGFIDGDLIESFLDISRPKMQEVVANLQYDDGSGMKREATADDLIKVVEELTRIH
# T2 sequence (Q13422 whole entry): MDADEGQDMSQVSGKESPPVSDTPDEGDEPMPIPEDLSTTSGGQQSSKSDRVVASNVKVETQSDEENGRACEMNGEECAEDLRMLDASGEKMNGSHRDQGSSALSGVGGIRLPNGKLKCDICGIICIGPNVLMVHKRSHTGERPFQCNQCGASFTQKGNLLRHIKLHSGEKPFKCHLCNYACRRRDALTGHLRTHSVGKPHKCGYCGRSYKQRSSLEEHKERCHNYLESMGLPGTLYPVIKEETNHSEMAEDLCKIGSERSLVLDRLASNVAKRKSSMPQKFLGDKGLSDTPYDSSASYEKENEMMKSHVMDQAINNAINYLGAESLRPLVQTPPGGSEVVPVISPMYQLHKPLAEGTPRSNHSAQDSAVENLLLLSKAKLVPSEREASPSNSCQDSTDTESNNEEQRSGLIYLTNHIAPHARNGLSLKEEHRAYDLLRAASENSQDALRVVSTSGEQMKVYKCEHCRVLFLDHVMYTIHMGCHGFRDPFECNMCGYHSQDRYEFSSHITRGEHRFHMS
# T2 sequence (Q96SW2 whole entry): as the sequence (Q96SW2 whole entry) above
# T2 sequence (Q16531 whole entry partner): as the sequence (Q16531 whole entry partner) above
# T3 sequence (Q9UKS7 whole entry): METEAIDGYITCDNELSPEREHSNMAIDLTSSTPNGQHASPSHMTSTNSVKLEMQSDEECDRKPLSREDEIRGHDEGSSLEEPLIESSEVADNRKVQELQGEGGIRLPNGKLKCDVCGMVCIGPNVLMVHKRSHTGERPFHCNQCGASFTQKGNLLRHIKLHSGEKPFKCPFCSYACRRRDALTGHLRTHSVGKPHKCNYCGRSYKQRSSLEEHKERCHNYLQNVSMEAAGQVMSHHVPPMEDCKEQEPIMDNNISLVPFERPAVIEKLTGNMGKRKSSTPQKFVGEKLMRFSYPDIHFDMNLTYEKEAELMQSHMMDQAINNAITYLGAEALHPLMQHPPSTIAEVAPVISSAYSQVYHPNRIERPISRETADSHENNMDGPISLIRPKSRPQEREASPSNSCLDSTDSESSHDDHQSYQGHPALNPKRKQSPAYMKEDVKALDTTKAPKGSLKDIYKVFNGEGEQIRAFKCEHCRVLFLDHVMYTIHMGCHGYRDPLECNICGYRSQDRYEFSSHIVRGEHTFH
# T3 sequence (Q96SW2 whole entry): as the sequence (Q96SW2 whole entry) above
# T3 sequence (Q16531 whole entry partner): as the sequence (Q16531 whole entry partner) above
# T5 sequence (P48729 whole entry): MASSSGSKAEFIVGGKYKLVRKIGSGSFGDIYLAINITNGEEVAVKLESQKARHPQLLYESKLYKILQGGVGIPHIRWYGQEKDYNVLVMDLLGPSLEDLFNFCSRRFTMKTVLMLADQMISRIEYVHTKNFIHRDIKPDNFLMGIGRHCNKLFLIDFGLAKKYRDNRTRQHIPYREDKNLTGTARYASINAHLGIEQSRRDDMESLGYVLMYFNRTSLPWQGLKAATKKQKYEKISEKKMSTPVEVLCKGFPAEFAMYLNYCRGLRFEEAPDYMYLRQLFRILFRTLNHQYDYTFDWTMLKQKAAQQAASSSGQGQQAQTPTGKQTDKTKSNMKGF
# T5 sequence (Q96SW2 whole entry): as the sequence (Q96SW2 whole entry) above
# T5 sequence (Q16531 whole entry partner): as the sequence (Q16531 whole entry partner) above
# T1 sequence (P30291 whole entry): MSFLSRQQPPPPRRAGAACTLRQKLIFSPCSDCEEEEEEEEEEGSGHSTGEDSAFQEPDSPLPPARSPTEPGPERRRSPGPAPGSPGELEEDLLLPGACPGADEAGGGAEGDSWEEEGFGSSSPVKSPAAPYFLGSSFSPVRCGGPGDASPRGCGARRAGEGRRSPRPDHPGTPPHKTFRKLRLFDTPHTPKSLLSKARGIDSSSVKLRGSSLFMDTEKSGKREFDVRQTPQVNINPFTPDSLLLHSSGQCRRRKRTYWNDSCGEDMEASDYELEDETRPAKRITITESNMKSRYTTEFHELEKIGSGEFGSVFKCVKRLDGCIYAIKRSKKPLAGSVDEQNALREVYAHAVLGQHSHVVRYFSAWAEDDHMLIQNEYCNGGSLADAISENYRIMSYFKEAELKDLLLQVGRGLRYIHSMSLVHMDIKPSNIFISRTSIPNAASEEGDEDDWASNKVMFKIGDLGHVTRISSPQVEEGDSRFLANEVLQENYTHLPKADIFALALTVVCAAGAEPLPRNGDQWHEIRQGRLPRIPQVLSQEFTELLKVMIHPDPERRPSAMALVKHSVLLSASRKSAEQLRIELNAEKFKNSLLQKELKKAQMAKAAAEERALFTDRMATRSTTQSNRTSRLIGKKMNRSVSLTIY
# T1 sequence (Q96SW2 whole entry): as the sequence (Q96SW2 whole entry) above
# T1 sequence (Q16531 whole entry partner): as the sequence (Q16531 whole entry partner) above
SMILES,WEE1 substrate protein remaining % (WEE1),IKZF1 substrate protein remaining % (IKZF1),IKZF2 substrate protein remaining % (IKZF2),IKZF3 substrate protein remaining % (IKZF3),CK1α substrate protein remaining % (CK1α),GSPT1 substrate protein remaining % (GSPT1)
"O=C1CCN(N2C(=O)c3ccc(CN4CCN(c5cccc(Cl)c5Cl)CC4)cc3C2=O)C(=O)N1 [GT-04854, 5-((4-(2,3-dichlorophenyl)piperazin-1-yl)methyl)-2-(2,4-dioxotetrahydropyrimidin-1(2H)-yl)isoindoline-1,3-dione]",A (0% ≤ substrate protein remaining % ≤80%),A (0% ≤ substrate protein remaining % ≤80%),A (0% ≤ substrate protein remaining % ≤80%),B (80%< substrate protein remaining % ≤100%),B (80%< substrate protein remaining % ≤100%),A (0% ≤ substrate protein remaining % ≤80%)
"O=C1CCN(N2Cc3cc(CN4CCC(c5noc6cc(F)ccc56)CC4)ccc3C2=O)C(=O)N1 [GT-04864, 1-(5-((4-(6-fluorobenzo[d]isoxazol-3-yl)piperidin-1-yl)methyl)-1-oxoisoindolin-2-yl)dihydropyrimidine-2,4(1H,3H)-dione]",B (80%< substrate protein remaining % ≤100%),A (0% ≤ substrate protein remaining % ≤80%),B (80%< substrate protein remaining % ≤100%),B (80%< substrate protein remaining % ≤100%),B (80%< substrate protein remaining % ≤100%),A (0% ≤ substrate protein remaining % ≤80%)
"O=C1CCN(N2Cc3cc(CN4CCN(c5nsc6ccccc56)CC4)ccc3C2=O)C(=O)N1 [GT-04865, 1-(5-((4-(benzo[d]isothiazol-3-yl)piperazin-1-yl)methyl)-1-oxoisoindolin-2-yl)dihydropyrimidine-2,4(1H,3H)-dione]",B (80%< substrate protein remaining % ≤100%),A (0% ≤ substrate protein remaining % ≤80%),B (80%< substrate protein remaining % ≤100%),B (80%< substrate protein remaining % ≤100%),B (80%< substrate protein remaining % ≤100%),A (0% ≤ substrate protein remaining % ≤80%)
"O=C1CCN(N2Cc3cc(CN4CCN(C(c5ccccc5)c5ccncc5)CC4)ccc3C2=O)C(=O)N1 (stereo not drawn) [GT-04891, 1-(1-oxo-5-((4-(phenyl(pyridin-4-yl)methyl)piperazin-1-yl)methyl)isoindolin-2-yl)dihydropyrimidine-2,4(1H,3H)-dione]",B (80%< substrate protein remaining % ≤100%),A (0% ≤ substrate protein remaining % ≤80%),A (0% ≤ substrate protein remaining % ≤80%),B (80%< substrate protein remaining % ≤100%),B (80%< substrate protein remaining % ≤100%),A (0% ≤ substrate protein remaining % ≤80%)
"O=C1CCN(N2Cc3cc(CN4CCN(C(c5ccc(Cl)cc5)c5ccc(Cl)cc5)CC4)ccc3C2=O)C(=O)N1 [GT-04895, 1-(5-((4-(bis(4-chlorophenyl)methyl)piperazin-1-yl)methyl)-1-oxoisoindolin-2-yl)dihydropyrimidine-2,4(1H,3H)-dione]",B (80%< substrate protein remaining % ≤100%),A (0% ≤ substrate protein remaining % ≤80%),A (0% ≤ substrate protein remaining % ≤80%),B (80%< substrate protein remaining % ≤100%),B (80%< substrate protein remaining % ≤100%),A (0% ≤ substrate protein remaining % ≤80%)
"O=C1CCN(N2Cc3cc(CN4C[C@@H]5C[C@H]4CN5C(c4ccccc4)c4ccccc4)ccc3C2=O)C(=O)N1 [GT-04938, 1-(5-(((1S,4S)-5-benzhydryl-2,5-diazabicyclo[2.2.1]heptan-2-yl)methyl)-1-oxoisoindolin-2-yl)dihydropyrimidine-2,4(1H,3H)-dione]",A (0% ≤ substrate protein remaining % ≤80%),B (80%< substrate protein remaining % ≤100%),A (0% ≤ substrate protein remaining % ≤80%),B (80%< substrate protein remaining % ≤100%),B (80%< substrate protein remaining % ≤100%),A (0% ≤ substrate protein remaining % ≤80%)
"O=C1CCN(N2Cc3cc(CN4CCN(c5cccs5)CC4)ccc3C2=O)C(=O)N1 [GT-05073, 1-(1-oxo-5-((4-(thiophen-2-yl)piperazin-1-yl)methyl)isoindolin-2-yl)dihydropyrimidine-2,4(1H,3H)-dione]",B (80%< substrate protein remaining % ≤100%),B (80%< substrate protein remaining % ≤100%),B (80%< substrate protein remaining % ≤100%),A (0% ≤ substrate protein remaining % ≤80%),B (80%< substrate protein remaining % ≤100%),B (80%< substrate protein remaining % ≤100%)
"Cc1ccc(N2CCN(Cc3ccc4c(c3)CN(N3CCC(=O)NC3=O)C4=O)CC2)s1 [GT-05083, 1-(5-((4-(5-methylthiophen-2-yl)piperazin-1-yl)methyl)-1-oxoisoindolin-2-yl)dihydropyrimidine-2,4(1H,3H)-dione]",B (80%< substrate protein remaining % ≤100%),B (80%< substrate protein remaining % ≤100%),A (0% ≤ substrate protein remaining % ≤80%),B (80%< substrate protein remaining % ≤100%),B (80%< substrate protein remaining % ≤100%),B (80%< substrate protein remaining % ≤100%)
"Cc1ccsc1N1CCN(Cc2ccc3c(c2)CN(N2CCC(=O)NC2=O)C3=O)CC1 [GT-05084, 1-(5-((4-(3-methylthiophen-2-yl)piperazin-1-yl)methyl)-1-oxoisoindolin-2-yl)dihydropyrimidine-2,4(1H,3H)-dione]",B (80%< substrate protein remaining % ≤100%),B (80%< substrate protein remaining % ≤100%),A (0% ≤ substrate protein remaining % ≤80%),B (80%< substrate protein remaining % ≤100%),B (80%< substrate protein remaining % ≤100%),B (80%< substrate protein remaining % ≤100%)
"Cc1cc(N2CCN(Cc3ccc4c(c3)CN(N3CCC(=O)NC3=O)C4=O)CC2)cs1 [GT-05087, 1-(5-((4-(5-methylthiophen-3-yl)piperazin-1-yl)methyl)-1-oxoisoindolin-2-yl)dihydropyrimidine-2,4(1H,3H)-dione]",B (80%< substrate protein remaining % ≤100%),B (80%< substrate protein remaining % ≤100%),B (80%< substrate protein remaining % ≤100%),B (80%< substrate protein remaining % ≤100%),B (80%< substrate protein remaining % ≤100%),A (0% ≤ substrate protein remaining % ≤80%)
